Test results: ChEMBL document CHEMBL1133397, “Fused bicyclic Gly-Asp beta-turn mimics with potent affinity for GPIIb-IIIa. Exploration of the arginine isostere” (Bioorg Med Chem Lett, 2000)

Key:
[1] = Blood level after a 10 mg/kg oral dose in rat expressed as AUC was determined; type: ADME, organism-based; parameters: dose 10 mg/kg, route oral
[2] = Blood level after a 10 mg/kg oral dose in rat expressed as Cmax was determined; type: ADME, organism-based; parameters: dose 10 mg/kg, route oral
Homo sapiens = species: Homo sapiens; assay: The compound was evaluated for reduction of ADP-induced human platelet aggregation response by 50% using PRP assay; type: functional, organism-based
[3] = biological target: Integrin alpha-IIb/beta-3 (Homo sapiens, UniProt P05106+P08514); assay: Inhibition of fibrinogen binding to purified human GPIIb-IIIa in ELISA; type: protein-complex assay
Chain of Integrin alpha-IIb/beta-3 (P05106 27-788 limits assumed): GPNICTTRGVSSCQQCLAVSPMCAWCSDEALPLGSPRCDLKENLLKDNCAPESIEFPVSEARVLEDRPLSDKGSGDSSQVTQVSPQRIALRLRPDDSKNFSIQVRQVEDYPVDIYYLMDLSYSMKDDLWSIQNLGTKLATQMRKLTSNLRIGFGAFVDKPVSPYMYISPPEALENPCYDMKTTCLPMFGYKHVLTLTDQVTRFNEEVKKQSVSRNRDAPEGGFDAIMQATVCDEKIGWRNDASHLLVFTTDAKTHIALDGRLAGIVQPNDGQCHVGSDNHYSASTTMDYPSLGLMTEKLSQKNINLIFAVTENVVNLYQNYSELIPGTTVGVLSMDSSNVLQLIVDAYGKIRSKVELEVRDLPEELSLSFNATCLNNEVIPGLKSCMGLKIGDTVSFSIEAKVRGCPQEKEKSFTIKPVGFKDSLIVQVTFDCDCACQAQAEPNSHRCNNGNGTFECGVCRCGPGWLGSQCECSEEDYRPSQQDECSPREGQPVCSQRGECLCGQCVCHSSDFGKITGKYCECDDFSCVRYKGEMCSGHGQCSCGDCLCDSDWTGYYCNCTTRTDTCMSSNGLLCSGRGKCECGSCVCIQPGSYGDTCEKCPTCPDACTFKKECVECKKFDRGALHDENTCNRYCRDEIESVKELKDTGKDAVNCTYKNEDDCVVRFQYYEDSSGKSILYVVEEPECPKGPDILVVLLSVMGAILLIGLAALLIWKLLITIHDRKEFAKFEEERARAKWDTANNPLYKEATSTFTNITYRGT
Chain of Integrin alpha-IIb/beta-3 (P08514 32-887 limits assumed): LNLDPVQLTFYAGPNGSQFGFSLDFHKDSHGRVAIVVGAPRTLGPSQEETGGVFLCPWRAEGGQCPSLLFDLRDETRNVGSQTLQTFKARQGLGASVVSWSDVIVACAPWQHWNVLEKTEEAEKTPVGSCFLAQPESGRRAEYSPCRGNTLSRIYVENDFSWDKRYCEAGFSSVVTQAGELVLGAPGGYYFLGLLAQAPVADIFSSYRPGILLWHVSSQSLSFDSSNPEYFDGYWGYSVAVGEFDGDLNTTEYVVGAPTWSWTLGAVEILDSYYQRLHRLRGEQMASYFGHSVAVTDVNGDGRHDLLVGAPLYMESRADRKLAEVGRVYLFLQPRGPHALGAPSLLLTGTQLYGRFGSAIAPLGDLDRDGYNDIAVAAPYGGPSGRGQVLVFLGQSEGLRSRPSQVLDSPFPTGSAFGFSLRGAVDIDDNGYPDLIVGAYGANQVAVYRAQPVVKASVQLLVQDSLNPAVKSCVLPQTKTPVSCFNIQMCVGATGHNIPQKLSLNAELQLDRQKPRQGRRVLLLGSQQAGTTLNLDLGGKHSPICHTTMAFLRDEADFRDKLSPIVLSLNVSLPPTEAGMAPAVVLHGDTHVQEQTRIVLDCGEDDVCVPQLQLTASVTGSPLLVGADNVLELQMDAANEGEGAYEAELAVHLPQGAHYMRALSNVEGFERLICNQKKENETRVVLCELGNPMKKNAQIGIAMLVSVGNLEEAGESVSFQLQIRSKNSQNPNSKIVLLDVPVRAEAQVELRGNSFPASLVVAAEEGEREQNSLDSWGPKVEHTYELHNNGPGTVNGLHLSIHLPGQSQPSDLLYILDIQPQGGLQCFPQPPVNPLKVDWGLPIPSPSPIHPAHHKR
Chain of Integrin alpha-IIb/beta-3 (P08514 891-1039 limits assumed): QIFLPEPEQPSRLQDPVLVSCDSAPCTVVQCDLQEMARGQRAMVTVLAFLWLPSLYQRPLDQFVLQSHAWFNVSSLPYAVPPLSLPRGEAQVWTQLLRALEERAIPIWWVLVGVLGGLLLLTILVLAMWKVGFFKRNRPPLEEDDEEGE

| SMILES | AUC [1] | Cmax [2] | IC50 (Homo sapiens) | IC50 [3] |
| --- | --- | --- | --- | --- |
| N=C(N)c1ccc(C(=O)Nc2ccc3c(c2)CCC(CC(=O)O)C3=O)cc1 (configuration not stated) | 11200 ng·h/mL | 3630 ng/mL |  |  |
| O=C(O)CC1CCc2cc(NC(=O)/C=C/C3CCNCC3)ccc2C1=O (configuration not stated) | 8140 ng·h/mL | 2700 ng/mL | 360 nM | 26 nM |
| N=C(N)c1ccc(C(=O)Nc2ccc3c(c2)CCC(CC(=O)O)C3=O)c(F)c1 (configuration not stated) | 11900 ng·h/mL | 4020 ng/mL | 100 nM | 3 nM |
| N=C(N)c1cc(F)c(C(=O)Nc2ccc3c(c2)CCC(CC(=O)O)C3=O)c(F)c1 (configuration not stated) | 6410 ng·h/mL | 2020 ng/mL | 240 nM | 5 nM |
| O=C(O)CC1CCc2cc(NC(=O)COC3CCNCC3)ccc2C1=O (configuration not stated) |  |  | 18000 nM |  |
| O=C(O)CC1CCc2cc(NCCCC3CCNCC3)ccc2C1=O (configuration not stated) |  |  | 5500 nM | 610 nM |
| O=C(O)CC1CCc2cc(NC(=O)CCC3CCNCC3)ccc2C1=O (configuration not stated) |  |  | 910 nM | 71 nM |
| N=C(N)c1ccc(C(=O)Nc2ccc3c(c2)CCC(CC(=O)O)C3=O)c(C(F)(F)F)c1 (configuration not stated) |  |  | 2000 nM | 72 nM |
| N=C(N)c1ccc(C(=O)Nc2ccc3c(c2)CCC(CC(=O)O)C3=O)cn1 (configuration not stated) | 3560 ng·h/mL | 1170 ng/mL | 220 nM | 9 nM |
| N=C(N)c1ccc(C(=O)Nc2ccc3c(c2)CCC(CC(=O)O)C3=O)s1 (configuration not stated) |  |  | 9000 nM | 210 nM |
| N=C(N)c1ccc(C(=O)Nc2ccc3c(c2)CCC(CC(=O)O)C3=O)c(Cl)c1 (configuration not stated) | 10400 ng·h/mL | 3110 ng/mL | 400 nM |  |
| O=C(O)CC1CCc2cc(NC(=O)OCC3CCNCC3)ccc2C1=O (configuration not stated) |  |  | 1800 nM | 330 nM |
